US20200297847A1, “Pharmaceutical Composition For Treating Obesity Induced By High Fat Diet And Non-Alcoholic Fatty Liver Disease By Using Trisodium Chlorin E6 Photosensitizer” (DONG SUNG PHARM. CO., LTD., priority 2017, published 2020)

Experiments:
mice = assay: toxicity detection (shape of whole body and internal organs after dissection); assay type: in vivo
Method: The mice treated with Chlorin e6 were tested for potential toxicity by observing the shape of the internal organs through dissection after killing.
The main concern in the development of medicaments or therapies is safety, and the safe use of medicaments means to effectively treat the disease with minimal or no toxicity in the body or parts of the body. Therefore, in the present experiment, the toxic effects of drugs and LED irradiation were examined. After the mice were dissected, the whole body and internal organs were examined in order to verify toxicity. […] It was observed that the liver was normal other than the fatty liver observed in the groups treated with HFD alone and LED alone (FIG. 6).

high-fat diet mice [1] = assay: lipid production and examination of non-alcoholic steatohepatitis (morphological examination of liver); assay type: in vivo, C57 Black mice; details: FIG. 3
Method: (§1) 6-week-old C57 Black mice were purchased and were fed with normal diet for a week of environmental adaptation.
(§2) After feeding with normal diet for a week, these mice were randomly divided into 7 groups and tested. The body weight thereof was measured periodically (three times per week), and an anti-obesity experiment was conducted when the body weight was about 20% more than the initial body weight. The anti-obesity experiment was as follows.
For group 4, only high-fat diet (HFD) was provided and the body weight was periodically measured, and when the body weight was about 20% or more than the initial body weight, trisodium Chlorin e6 (2.5 mg/kg) was dissolved in 200 μl of a saline solution and administered intraperitoneally. After intraperitoneal administration thereof, the mice were allowed to adapt to a dark room for 3 hr and then placed in an LED-illuminated cage, followed by irradiation with low-level LED light.
For group 5, only high-fat diet (HFD) was provided and the body weight was periodically measured, and when the body weight was about 20% or more than the initial body weight, trisodium Chlorin e6 (2.5 mg/kg) was dissolved in 200 μl of a saline solution and administered intraperitoneally. […]

high-fat diet mice [2] = assay: anti-obesity experiment (PDT, body weight of mice fed with high-fat diet); assay type: in vivo, C57 Black mice; details: group 5: HFD + 2.5 mg/kg intraperitoneally + high-level LED irradiation (4.96 mW/cm^2, 10 min, 2.98 J/cm^2); compared with group 4 (low-level LED) and group 1 (HFD); FIG. 2
Method: as §1, §2
For group 1, only high-fat diet (HFD) was provided and the body weight was periodically measured (HFD).
For group 2, only high-fat diet (HFD) was provided and the body weight was periodically measured, and the mice were placed in an LED-illuminated cage when the body weight thereof was about 20% or more than the initial body weight, followed by irradiation with low-level LED light.
For group 3, only high-fat diet (HFD) was provided and the body weight was periodically measured, and the mice were placed in an LED-illuminated cage when the body weight thereof was about 20% or more than the initial body weight, followed by irradiation with high-level LED light.
For group 4, only high-fat diet (HFD) was provided and the body weight was periodically measured, and when the body weight was about 20% or more than the initial body weight, trisodium Chlorin e6 (2.5 mg/kg) was dissolved in 200 μl of a saline solution and administered intraperitoneally. […]

In the case of trisodium Chlorin e6, the toxicity during treatment (mice; Chlorin e6 and LED irradiation in mice) is reported as “Toxicity was not observed”, the “internal organs after dissection” value (mice; mouse, in vivo) is reported as “no bleeding, color change or gangrene in the intestines was observed” and the “non-alcoholic steatohepatitis (NASH)” value (high-fat diet mice [1]; group 4: HFD + 2.5 mg/kg intraperitoneally + low-level LED irradiation (2.56 mW/cm^2, 5 min, 0.77 J/cm^2)) is reported as “alleviated”. For the same substance, the “non-alcoholic steatohepatitis (NASH)” value (high-fat diet mice [1]; group 5: HFD + 2.5 mg/kg intraperitoneally + high-level LED irradiation) was “alleviated” and the “weight loss / reduction of percentage of weight gain” value (high-fat diet mice [2]) was “the most effective group”.
